The test system of series [1] is U-251. The series can be described thus: Antiproliferative activity against human U-251 assessed as cell viability incubated for 48 hrs by MTT assay. It counts as functional, cell-based. The settings on record: U-251, 48 h.
Series [2] has as its system U-87 MG. The series can be described thus: Antiproliferative activity against human U-87 MG assessed as cell viability incubated for 48 hrs by MTT assay. It counts as functional, cell-based, U-87MG ATCC.
In series [3] the target is T1, Focal adhesion kinase 1 (Homo sapiens, UniProt Q05397). The experiment in a line: Inhibition of FAK (unknown origin) at 50 nM relative to control.
Target sequence in this assay (Q05397 2-1052 limits assumed): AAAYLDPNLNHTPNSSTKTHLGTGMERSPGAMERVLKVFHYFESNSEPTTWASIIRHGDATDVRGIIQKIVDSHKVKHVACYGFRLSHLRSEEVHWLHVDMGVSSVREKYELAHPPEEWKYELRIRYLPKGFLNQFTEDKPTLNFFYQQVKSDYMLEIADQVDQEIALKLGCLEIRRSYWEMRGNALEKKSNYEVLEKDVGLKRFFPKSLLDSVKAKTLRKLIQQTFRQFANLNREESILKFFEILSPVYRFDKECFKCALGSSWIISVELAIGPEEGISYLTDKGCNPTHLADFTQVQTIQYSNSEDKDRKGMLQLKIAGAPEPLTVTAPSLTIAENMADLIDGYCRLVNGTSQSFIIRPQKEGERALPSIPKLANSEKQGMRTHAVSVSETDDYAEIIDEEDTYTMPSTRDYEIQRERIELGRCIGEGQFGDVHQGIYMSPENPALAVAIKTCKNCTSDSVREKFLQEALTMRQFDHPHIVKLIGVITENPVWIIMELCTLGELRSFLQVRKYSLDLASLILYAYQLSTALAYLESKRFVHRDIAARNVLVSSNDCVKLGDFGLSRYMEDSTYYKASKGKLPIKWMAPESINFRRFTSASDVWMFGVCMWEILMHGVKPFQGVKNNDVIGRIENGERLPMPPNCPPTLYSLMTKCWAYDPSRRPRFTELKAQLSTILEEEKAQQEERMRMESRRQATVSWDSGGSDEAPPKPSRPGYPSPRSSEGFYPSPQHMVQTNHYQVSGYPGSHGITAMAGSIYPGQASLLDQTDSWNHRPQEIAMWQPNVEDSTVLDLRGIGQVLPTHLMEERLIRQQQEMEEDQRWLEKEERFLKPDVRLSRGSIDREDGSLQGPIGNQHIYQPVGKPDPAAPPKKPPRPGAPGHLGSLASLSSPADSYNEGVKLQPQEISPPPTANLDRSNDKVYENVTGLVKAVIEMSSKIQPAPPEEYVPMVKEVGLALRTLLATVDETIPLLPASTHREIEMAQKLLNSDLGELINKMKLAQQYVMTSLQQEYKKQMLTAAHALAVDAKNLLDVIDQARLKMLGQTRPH
Series [4] has as its target T1, Focal adhesion kinase 1. The series can be described thus: Inhibition of FAK (unknown origin) at 10 nM relative to control.
Target sequence in this assay (Q05397 2-1052 limits assumed): as above
The target of series [5] is T1, Focal adhesion kinase 1. The series can be described thus: Inhibition of FAK (unknown origin) preincubated for 10 mins followed by ATP and substrate addition and measured after 50 mins by HTRF analysis.
Target sequence in this assay (Q05397 whole entry): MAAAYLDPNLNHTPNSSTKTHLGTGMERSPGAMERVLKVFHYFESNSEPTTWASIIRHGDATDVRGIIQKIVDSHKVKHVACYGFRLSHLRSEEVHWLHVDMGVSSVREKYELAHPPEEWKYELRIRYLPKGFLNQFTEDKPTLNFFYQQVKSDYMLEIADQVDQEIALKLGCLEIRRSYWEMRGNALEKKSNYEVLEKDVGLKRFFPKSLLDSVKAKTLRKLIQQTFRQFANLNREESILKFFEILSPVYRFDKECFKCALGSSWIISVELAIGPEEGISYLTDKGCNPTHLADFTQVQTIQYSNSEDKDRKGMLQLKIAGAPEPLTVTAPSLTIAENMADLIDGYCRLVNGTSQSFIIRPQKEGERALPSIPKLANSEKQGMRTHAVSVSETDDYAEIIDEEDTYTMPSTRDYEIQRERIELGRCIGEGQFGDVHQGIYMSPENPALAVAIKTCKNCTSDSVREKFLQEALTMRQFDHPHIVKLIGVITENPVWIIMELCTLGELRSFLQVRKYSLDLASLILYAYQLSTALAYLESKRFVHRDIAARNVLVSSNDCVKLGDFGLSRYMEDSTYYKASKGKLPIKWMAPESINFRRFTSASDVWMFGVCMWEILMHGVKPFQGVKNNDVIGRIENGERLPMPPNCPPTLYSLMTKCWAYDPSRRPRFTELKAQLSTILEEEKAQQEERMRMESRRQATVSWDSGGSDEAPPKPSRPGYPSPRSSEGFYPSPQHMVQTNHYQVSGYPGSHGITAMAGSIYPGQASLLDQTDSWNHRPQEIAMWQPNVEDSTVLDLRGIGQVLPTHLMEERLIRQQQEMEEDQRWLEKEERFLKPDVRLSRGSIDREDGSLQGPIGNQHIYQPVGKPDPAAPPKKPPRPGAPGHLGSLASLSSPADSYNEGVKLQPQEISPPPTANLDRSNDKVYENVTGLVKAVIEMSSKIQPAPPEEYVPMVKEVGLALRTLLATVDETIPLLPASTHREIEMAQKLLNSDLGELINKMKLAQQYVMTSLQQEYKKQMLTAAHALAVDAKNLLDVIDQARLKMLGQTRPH
Series [6] in a line: Cytotoxicity against human LO2 assessed as cell viability incubated for 48 hrs by MTT assay. It counts as toxicity, cell-based, L02. The following applies: LO2 cells.
The nature of series [7]: Cytotoxicity against human 2BS assessed as cell viability incubated for 48 hrs by MTT assay. It counts as toxicity, cell-based. The settings on record: 2BS cells.
Series [8] is described as follows: Distribution coefficient, logD of compound in n-Octanol/water at pH 7.4. It counts as physicochemical.
A short description of series [9]: Effective permeability of compound at pH 7.4 incubated for 16 hrs by LCMS analysis. It counts as ADME. The following applies: pH 7.4, 16 h.
Series [10] in a line: Selectivity ratio of IC50 for cytotoxicity against human LO2 assessed as cell viability to IC50 for antiproliferative activity against human U-251 assessed as cell viability. It counts as toxicity. The following applies: LO2 cells versus U-251 cells, read-out: Ratio IC50.
Series [11] in a line: Selectivity ratio of IC50 for cytotoxicity against human LO2 assessed as cell viability to IC50 for antiproliferative activity against human U-87 MG assessed as cell viability. It counts as toxicity. The settings on record: LO2 cells versus U-87 MG cells, read-out: Ratio IC50.
The subject of series [12] is U-87 MG. The experiment in a line: Induction of DNA damage in human U-87 MG cells assessed as comet tail moment at 0.1 to 2 uM incubated for 2.5 to 3 hrs by comet assay. It counts as functional. The following applies: U-87MG ATCC, time 2.5-3 hrs.

The values that follow come from ChEMBL document CHEMBL6153079, “Discovery of noncovalent diaminopyrimidine-based Inhibitors for glioblastoma via a dual FAK/DNA targeting strategy” (Eur J Med Chem, 2025).

Calls of active or inactive are those of the source. The calls are words filed in the database; no cut-off is given here.

For the compound `CNC(=O)c1ccccc1Nc1nc(Nc2ccc(N3CCN(CCOC(=O)c4ccc(N(CCCl)CCCl)cc4)CC3)cc2)ncc1C(F)(F)F`, the values for the IC50 in series [1], in series [2] and in series [5] were 31 nM, 27 nM and 4.28 nM, respectively. In addition, the inhibition in [3] worked out at 96.4%; in series [4], 81.3%. Further, the IC50 at 48 h is 1210 nM in series [6] and 24100 nM in series [7]. In series [8], this compound came in with a logD of 5.34. Besides, the Peff in series [9] is 0.001 10^-6 cm/s. The selectivity ratio in [10] and in series [11] was above 40 in each case.

Consider `CNC(=O)c1ccccc1Nc1nc(Nc2ccc(N3CCN(CCO)CC3)cc2)ncc1Cl`, for which the half-maximal inhibitory concentration (IC50) in series [1] stood at 194 nM; in [2], 62 nM. The inhibition turned out to be 77.9% in [3] and 67.7% in series [4].

Turning to `O=C(O)CCCc1ccc(N(CCCl)CCCl)cc1` [CHLORAMBUCIL], the IC50 in series [1] and in [2] was above 50000 nM throughout. The values for the inhibition in series [3] and in [4] were 8.54% and 2.77%, respectively.

Turning to `CNC(=O)c1ccccc1Nc1nc(Nc2ccc(N3CCN(CCOC(=O)CCCc4ccc(N(CCCl)CCCl)cc4)CC3)cc2)ncc1Br`, the values for the IC50 in [1] and in series [2] were 81 nM and 30 nM, respectively. Moreover, the inhibition turned out to be 94.2% in series [3] and 68.4% in [4].

For the compound `CNC(=O)c1ccccc1Nc1nc(Nc2ccc(N3CCN(C(=O)c4ccc(N(CCCl)CCCl)cc4)CC3)cc2)ncc1Cl`, the 50% inhibitory concentration (IC50) in [1] is 6260 nM; in series [2], 1760 nM. Also, the inhibition in series [3] worked out at 77.5%; in series [4], 55.8%.

With `CNC(=O)c1ccccc1Nc1nc(Nc2ccc(N3CCNCC3)cc2)ncc1Cl`, the IC50 came to 79 nM in series [1] and 36 nM in [2]. For the same compound, the inhibition in series [3] amounted to 78.6%; in [4] it was 67.9%.

Take `CNC(=O)c1ccccc1Nc1nc(Nc2ccc(N3CCN(C(=O)c4ccc(N(CCCl)CCCl)cc4)CC3)cc2OC)ncc1Cl`: the IC50 in series [1] and in series [2] was above 50000 nM throughout. The inhibition in series [3] turned out to be 64.6%; in [4], 26.2%.

As to `CNC(=O)c1ccccc1Nc1nc(Nc2ccc(C3CCN(C(=O)CCCc4ccc(N(CCCl)CCCl)cc4)CC3)cc2)ncc1Cl`, the figures for the half-maximal inhibitory concentration (IC50) in series [1] and in series [2] were 18200 nM and 1400 nM, respectively. Moreover, the inhibition in series [3] was 67.5%; in [4], 56.4%.

Take `CNC(=O)c1ccccc1Nc1nc(Nc2ccc(N3CCN(CCOC(=O)CCCc4ccc(N(CCCl)CCCl)cc4)CC3)cc2)ncc1C`: the concentration for half-maximal inhibition (IC50) in series [1] amounted to 168 nM; in series [2], 42 nM. Further, the figures for the inhibition in series [3] and in [4] were 97.5% and 65.8%, respectively.

Take `CNC(=O)c1ccccc1Nc1nc(Nc2ccc(N3CCN(CCOC(=O)CCCc4ccc(N(CCCl)CCCl)cc4)CC3)cc2)ncc1Cl`: the values for the concentration for half-maximal inhibition (IC50) in series [1] and in [2] were 485 nM and 95 nM, respectively. Also, the inhibition was 94.5% in series [3] and 79.8% in series [4].

Take `CNC(=O)c1ccccc1Nc1nc(Nc2ccc(N3CCN(C)CC3)cc2)ncc1Cl`: the 50% inhibitory concentration (IC50) in series [1] amounted to 64 nM; in series [2], 17 nM; in series [5], 3.2 nM. The results for the inhibition in series [3] and in series [4] were 80.2% and 76.4%, respectively. Also, the IC50 at 48 h in series [6] turned out to be 801 nM; in [7], 11600 nM. In series [8], this compound registered a logD of 3.1. The selectivity ratio in series [10] and in series [11] was above 40 each time. Further, the result in series [12] was inactive.

`CNC(=O)c1ccccc1Nc1nc(Nc2ccc(N3CCN(CCOC(=O)c4ccc(N(CCCl)CCCl)cc4)CC3)cc2)ncc1Cl`: the results for the concentration for half-maximal inhibition (IC50) in series [1] and in series [2] were 1210 nM and 390 nM, respectively. The figures for the inhibition in series [3] and in series [4] were 78.5% and 51.9%, respectively.

As to `CNC(=O)c1ccccc1Nc1nc(Nc2ccc(N3CCN(CCOC(=O)CCCc4ccc(N(CCCl)CCCl)cc4)CC3)cc2)ncc1[N+](=O)[O-]`, the values for the half-inhibitory concentration (IC50) in [1] and in [2] were 849 nM and 605 nM, respectively. Further, the inhibition is 75.4% in [3] and 36.5% in series [4].

As to `CNC(=O)c1ccccc1Nc1nc(Nc2ccc(C3CCN(C(=O)c4ccc(N(CCCl)CCCl)cc4)CC3)cc2)ncc1Cl`, the results for the IC50 in [1] and in series [2] were above 50000 nM and 39600 nM, respectively. In addition, the results for the inhibition in [3] and in series [4] were 58.6% and 34%, respectively.

With `CNC(=O)c1ccccc1Nc1nc(Nc2ccc(N3CCN(C(=O)CCCc4ccc(N(CCCl)CCCl)cc4)CC3)cc2)ncc1Cl`, the IC50 in [1] was found to be 3700 nM; in series [2], 990 nM. Moreover, the inhibition in [3] worked out at 74.2%; in series [4], 55.4%.

With `CNC(=O)c1ccccc1Nc1nc(Nc2ccc(N3CCN(C(=O)CCCc4ccc(N(CCCl)CCCl)cc4)CC3)cc2OC)ncc1Cl`, the half-maximal inhibitory concentration (IC50) is above 50000 nM in series [1] and 18000 nM in series [2]. In addition, the inhibition in series [3] was found to be 67.3%; in series [4] it was 32.2%.
